# Assay results taken from publication PMC6691349 (Frontiers in Chemistry, 2019).
# Experiments:
# [1] = target: T1, falcipain-2 (Plasmodium falciparum, UniProt Q8I6U4); assay: fluorometric Z-LR-AMC kinetic assay with refolded recombinant enzyme; global fit to mixed inhibition model; format: biochemical
# T1 construct: gene FP2A
# [2] = target: T1, falcipain-2; assay: fluorometric Z-LR-AMC kinetic assay with refolded recombinant enzyme; global fit to competitive and Morrison equations; reversibility by rapid dilution; format: biochemical
# [3] = tested on: Cc1cc(=O)oc2cc(NC(=O)[C@H](CCCNC(=N)N)NC(=O)[C@H](CC(C)C)NC(=O)OCc3ccccc3)ccc12; assay: purified protein; settings: accommodates completely within falcipain-2 active site
# T1 sequence (Q8I6U4 244-484): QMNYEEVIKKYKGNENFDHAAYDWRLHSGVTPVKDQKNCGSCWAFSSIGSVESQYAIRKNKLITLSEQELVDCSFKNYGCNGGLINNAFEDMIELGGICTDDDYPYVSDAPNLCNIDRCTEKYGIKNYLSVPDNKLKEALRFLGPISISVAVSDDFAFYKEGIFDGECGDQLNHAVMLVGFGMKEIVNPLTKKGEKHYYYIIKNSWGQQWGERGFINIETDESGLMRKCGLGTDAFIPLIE
compound,measurement,setting,value
C=C1c2cccc(O)c2C(=O)C2=C(O)[C@]3(O)C(=O)C(C(N)=O)=C(O)[C@@H](N(C)C)[C@@H]3[C@@H](O)[C@H]12 [methacycline],Ki,[1],84.4 ± 6.5 µM
CC(C)(F)C[C@H](N[C@@H](c1ccc(-c2ccc(S(C)(=O)=O)cc2)cc1)C(F)(F)F)C(=O)NC1(C#N)CC1 [odanacatib],Ki,[2],0.0982 ± 0.0102 µM
falcipain-2 (Plasmodium falciparum 3D7),Km,[3],4.8 µM
